Assay results: patent US20130280279A1, “PHARMACEUTICAL COMPOSITION OF A COMPLEX OF AN ANTI-DIG ANTIBODY AND DIGOXIGENIN THAT IS CONJUGATED TO A PEPTIDE” (HOFFMANN-LA ROCHE INC., priority 2011, published 2013)
pIC50: −log10 of the molar value. Values belong to the compound of their own block, whether it stands above or below them.

What was measured:
NPY2 receptor = target: T1, NPY2 receptor (Homo sapiens, UniProt P49146); test: cAMP assay: inhibition of Forskolin stimulated cAMP accumulation in HEK293/hNPY2R; type: cell-based
T1 construct: expressed in transfected cells; host or cells: HEK293/hNPY2R (grown under G418 selection)
T1 sequence (P49146 1-381): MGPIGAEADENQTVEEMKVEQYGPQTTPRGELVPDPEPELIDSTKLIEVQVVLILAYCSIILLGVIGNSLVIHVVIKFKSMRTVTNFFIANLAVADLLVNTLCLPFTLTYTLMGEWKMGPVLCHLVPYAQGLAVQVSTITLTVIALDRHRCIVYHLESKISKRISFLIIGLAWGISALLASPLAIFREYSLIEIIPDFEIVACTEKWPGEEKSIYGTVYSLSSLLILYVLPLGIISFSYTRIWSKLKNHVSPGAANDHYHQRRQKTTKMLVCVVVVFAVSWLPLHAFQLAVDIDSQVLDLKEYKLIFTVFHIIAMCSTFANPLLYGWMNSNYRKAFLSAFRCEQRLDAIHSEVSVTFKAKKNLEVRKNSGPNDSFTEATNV
Experimental: To perform the assay, on the first day, medium was discarded, and the monolayer cells were washed with 10 mL PBS per flask (T225). […] The flask was gently tapped and the cell suspension was pooled. Each flask was rinsed with 10 mL plating medium and centrifuged at 1000 rpm for 5 min. The suspension was pooled and counted. […] The plates were incubated at 37° C. overnight. […] The media and reagents were allowed to come to room temperature. […] The cell medium was tapped off with a gentle inversion of the cell plate on a paper towel. 50 μL of stimulation medium was placed per well (each concentration done in four replicates). The plates were incubated at room temperature for 30 min, and the cells were checked under a microscope for toxicity. After 30 min of treatment, the stimulation media was discarded and 50 μL/well of Assay Lysis Buffer (provided in the Tropix kit) was added. […] 20 μL of the lysate was transferred from stimulation plates into the pre-coated antibody plates (384-well) from the Tropix kit. […] The plates were incubated at room temperature while shaking for 1 hour. […] The plates were tapped to dry. […] Signal for 1 sec/well in a Luminometer. (VICTOR-V) was measured.

[1] = serum levels of Dig-peptide after i.v. application, Western Blot; type: in vivo, mice (strain NRMI)
Experimental: To generate Dig-Cy5 complexes, 886.1 nmol of lyophilized DIG-Cy5 were added to 446.4 nmol anti-DIG-Antibody in 20 mM Histidin/140 mM NaCl pH 6.0 in 4 portions within 1 h at RT, slowly shaking. After the addition of the last portion the sample was incubated for a total of 2 h. In case of the DIG-PYY complexes, 691.7 nmol of lyophilized DIG-PYY were added to 364 nmol anti-DIG-Antibody in 20 mM Histidin/140 mM NaCl pH 6.0 and treated equally as the DIG-Cy5 complexes. The samples were applied to a Superdex 200 HiLoad 16/60 prep grade size exclusion column with 20 mM Histidin/140 mM NaCl pH6.0 as mobile phase. Fractions containing the complex were pooled and concentrated to 19.4 mg/ml (DIG-Cy5 complex) and 19.9 mg/ml (DIG-PYY complex) with a centrifugal filtration device (Vivaspin 20, 30 kDa MWCO, GE Healthcare). The protein concentration of the DIG-Cy5 containing sample was determined by the formula 4A280−(A649×CF))×dilution factor)/ε. CF is the correction factor A280nm/A649nm which was determined as 0.008. Loading of the antibody with DIG-Cy5 was calculated as 1.2 moles of DIG-Cy5 per mole antibody with the formula: (A649nm/(εCy5×protein concentration M))×dilution factor. […] All samples were filtered with a PVDF syringe filter (0.22 μm pore size) under sterile conditions.
To analyze the influence on PK parameters of antibody-complexation of the digoxigenated peptide, 32.1 nmol of the peptide DIG-moPYY, or of the corresponding antibody complexated peptide in 20 mM Histidin/140 mM NaCl pH 6.0 were applied to 2 female mice (strain NRMI) for each substance. […] About 0.1 ml blood samples were collected after the following time points: 0.08 h, 2 h and 24 h for Mouse 1 and 0.08 h, 4 h 24 h for Mouse 2. Serum samples of at least 40 μl were obtained after 1 h at RT by centrifugation (9300×g, 3 min, 4° C.). Serum samples were stored at −80° C. […] The reason for that was that we had no direct means to detect the peptide in serum samples. Therefore, we devised a Western-Blot related assay to detect digoxigenated peptide in serum. In a first step, the serum samples were separated on reducing SDS-PAGE. Because sample preparation for that included exposure of the serum to high concentrations of SDS and reducing agents, Dig-peptides can become released from the (completely denatured/unfolded)<Dig> IgG. To mediate the release of peptide from the antibody complex and separate them by SDS-PAGE, 2 μl of each serum sample was diluted in 18 μl 20 mM Histidin/140 mM NaCl pH 6.0, mixed with 6.7 μl of 4×LDS sample buffer and 3 μl of 10× sample reducing agent (NuPAGE, Invitrogen) for 5 min at 95° C. […] Digoxigenated peptides were subsequently detected on the membrane with anti-digoxygenin antibodies. […] Chemiluminescence was detected with the LumiImager F 1 (Roche) with an exposure time of 20 min. […]

[2] = test system: diet-induced obese (DIO) mice; test: food intake in DIO (diet-induced-obesity) model; type: in vivo, C57Bl/6 mice; details: moPYY 11.05 μMol/kg, antibody-complexed DIG-moPYY 0.62 μMol/kg, up to 96 h post-dosing
Experimental: To determine the effect of NPY2-receptor agonists on food intake in these experiments we applied uncomplexed PYY-derived peptides and antibody complexed peptides to animals (adult male C57Bl/6 mice) in a DIO (diet-induced-obesity) model. The experiments were conducted on adult male C57Bl/6 mice obtained from Jackson laboratories. The mice were placed on a high fat diet (HFD; 60% of dietary kcal as fat, BioServe F3282) for over 20 weeks to induce obesity. The diet-induced obese (DIO) mice were sorted by body weight and 24 h food intake, and housed individually in standard caging at 22° C. in a reversed 12-h light/12-h dark cycle, and were acclimated to these conditions for at least 6 days before start of the experiment. Food (HFD) and water were provided ad libitum throughout the study. Ab-PYY3-37 fusion proteins and the vehicle controls were injected at the beginning of the dark cycle and food intake measured at various time intervals up to 96 h post-dosing (N=6-8 mice/group). Uncomplexed peptide moPYY was applied at concentration of 11.05 μMol/kg. Antibody-complexed DIG-moPYY was applied at a concentration of 0.62 μMol/kg. Thus, the injected molar concentration of the antibody complexed peptide was more than 17-fold lower than that of the uncomplexed peptide. […]

[3] = excitation and emission spectra of Cy5 derivatives; type: physicochemical
Description: To evaluate whether digoxigenation of Cy5 alters its fluorescence features, we compared the excitation and emission spectra of Cy5 and compared it with the spectra of the newly generated Dig-Cy5 and with Dig-Cy5 within a complex with bispecific antibodies.

SMILES: CC[C@H](C)[C@H](NC(C)=O)C(=O)N[C@@H](CCCCNC(=O)CCOCCOCCOCCNC(=O)CO[C@H]1CC[C@@]2(C)[C@H](CC[C@@H]3[C@@H]2C[C@@H](O)[C@]2(C)[C@@H](C4=CC(=O)OC4)CC[C@]32O)C1)C(=O)N1CCN(c2ccc3ncn(CC(=O)N[C@@H](CCCNC(=N)N)C(=O)N[C@@H](Cc4c[nH]cn4)C(=O)N[C@@H](Cc4ccc(O)cc4)C(=O)N[C@@H](CC(C)C)C(=O)N[C@@H](CC(N)=O)C(=O)N[C@@H](Cc4c[nH]c5ccccc45)C(=O)N[C@H](C(=O)N[C@H](C(=O)N[C@@H](CCCNC(=N)N)C(=O)N[C@@H](CCC(N)=O)C(=O)N(C)[C@@H](CCCNC(=N)N)C(=O)N[C@@H](Cc4ccc(O)cc4)C(N)=O)[C@@H](C)O)C(C)C)c(=O)c3c2)CC1 [DIG-moPYY]
- pIC50 (NPY2 receptor): 9.38
- Dig-peptide signal in serum (Western Blot, in words) ([1]; 5 min after administration): only in trace amounts
- Dig-peptide signal in serum (Western Blot, in words) ([1]; later time points up to 24 hrs after administration): no defined peptide band are detectable

SMILES: CC[C@H](C)[C@H](NC(C)=O)C(=O)N[C@@H](CCCCNC(=O)CCOCCOCCOCCNC(=O)CO[C@H]1CC[C@@]2(C)[C@H](CC[C@@H]3[C@@H]2C[C@@H](O)[C@]2(C)[C@@H](C4=CC(=O)OC4)CC[C@]32O)C1)C(=O)N1CCN(c2ccc3ncn(CC(=O)N[C@@H](CCCNC(=N)N)C(=O)N[C@@H](Cc4c[nH]cn4)C(=O)N[C@@H](Cc4ccc(O)cc4)C(=O)N[C@@H](CC(C)C)C(=O)N[C@@H](CC(N)=O)C(=O)N[C@@H](Cc4c[nH]c5ccccc45)C(=O)N[C@H](C(=O)N[C@H](C(=O)N[C@@H](CCCNC(=N)N)C(=O)N[C@@H](CCC(N)=O)C(=O)N(C)[C@@H](CCCNC(=N)N)C(=O)N[C@@H](Cc4ccc(O)cc4)C(N)=O)[C@@H](C)O)C(C)C)c(=O)c3c2)CC1 [<Dig> DIGmoPYY]
- effect on food intake [2]: strikingly reduced the food-intake
- biological activity in vitro compared to PEG-peptide (NPY2 receptor; cAMP assay): four fold better
- Dig-peptide signal in serum (Western Blot, in words) ([1]; 5 min after administration, listed as <DIG>-DIG-moPYY): strong signals
- Dig-peptide signal in serum (Western Blot, in words) ([1]; later time points up to 24 hrs after administration, listed as <DIG>-DIG-moPYY): still detectable with good signals

- Emission maximum [3]: 680 nm
- Excitation maximum [3]: 652 nm
SMILES: CCN1/C(=C/C=C/C=C/C2=[N+](CCCCCC(=O)O)c3ccc(S(=O)(=O)O)cc3C2(C)C)C(C)(C)c2cc(S(=O)(=O)[O-])ccc21 [Cy5]
